Measurements: publication PMC6331714 (ChemistryOpen, 2019)

Columns and labels:
XIAP = XIAP (Homo sapiens, UniProt P98170); assay: fluorescence polarization competition with AVPFAQK; type: binding
[1] = target: X-linked inhibitor of apoptosis protein (XIAP) BIR3 domain; assay: fluorescence polarisation

XIAP, sequence (P98170 241-356 limits assumed): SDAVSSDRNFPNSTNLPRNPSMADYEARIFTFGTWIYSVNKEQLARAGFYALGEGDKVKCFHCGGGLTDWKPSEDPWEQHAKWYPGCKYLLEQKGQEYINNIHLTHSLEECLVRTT

| IC50 (XIAP) [nM] | IC50 [1] [nM] | Molecule |
| --- | --- | --- |
| 210 | – | C[C@H](N)C(=O)N[C@H]1CNC(=O)C[C@H]2CC[C@@H](C(=O)NC(c3ccccc3)c3ccccc3)N2C1=O [ZJ-1, (5 S ,8 S ,10aR)‐5‐((S)‐2‐aminopropanamido)‐N‐benzhydryl‐2,6‐dioxodecahydropyrrolo[1,2‐a][1,5] diazocine‐8‐carboxamide] |
| – | 1150 | AVPI [AVPI, N-terminal tetrapeptide binding motif of Smac/DIABLO (Ala-Val-Pro-Ile)] |
